Experimental data as given in patent EP1886694A1, “Peroral formulation of dienogest and ethinylestradiol for contraception” (priority 2006, dated 2008).

What was measured:
[1] = test system: Ovulationshemmung; assay: optimal dose for reliable ovulation inhibition; type: in vivo; conditions: mikronisiert, mittlere Teilchengröße ca. 3 µm
Description: Als schwerlöslicher Wirkstoff wird Dienogest üblicherweise mikronisiert mit einer mittleren Teilchengröße von ca. 3 µm eingesetzt. Mit dieser Partikelgrößenverteilung wurde als optimale Dosis für eine sichere Ovulationshemmung 2 mg Dienogest ermittelt.

[2] = Einzeldosis; mittlere Partikelgröße 3,7 µm compared with 22 µm; cited from earlier work

Compound	optimale Dosis für eine sichere Ovulationshemmung [1] [mg]	Plasmaspiegel [2]
C[C@]12CCC3=C4CCC(=O)C=C4CC[C@H]3[C@@H]1CC[C@@]2(O)CC#N [Dienogest, 17α-Cyanomethyl-17-β-hydroxyestra-4,9-dien-3on]	2	–
C[C@H]1O[C@@H](O[C@H]2[C@@H](O)C[C@H](O[C@H]3[C@@H](O)C[C@H](O[C@H]4CC[C@@]5(C)[C@H](CC[C@@H]6[C@@H]5C[C@@H](O)[C@]5(C)[C@@H](C7=CC(=O)OC7)CC[C@]65O)C4)O[C@@H]3C)O[C@@H]2C)C[C@H](O)[C@@H]1O [Digoxin]	–	fast doppelt so hohe
